Source: PMC11910216, “Targeting ubiquitin-independent proteasome with small molecule increases susceptibility in pan-KRAS–mutant cancer models” (The Journal of Clinical Investigation, 2025)
Several values for one entry are separate records, joined by “and”; a condition that tells them apart may be missing. Equal values may be shown once.

Assays:
[1] = target: T1, interaction between REGγ and α7 (Homo sapiens, UniProt P25786+P25788); experiment: Co-IP of REGγ and α7 with RLY01; format: biochemical; details: FLAG-REGγ in HCT116-KO cell lysates, 12 hours in vitro
T1 construct: expressed in transfected cells; host or cells: HCT116-KO (REGγ knockout) cells, lysate treated in vitro
Protocol: Cells were washed with PBS and lysed with RIPA lysis buffer (50 mM Tris-HCl [pH 7.5], 150 mM NaCl, 1% NP-40, and 0.1% SDS). Cell lysates were then centrifuged for 20 minutes at 13,400g at 4°C. To immunoprecipitate protein, 10% of supernatant was reserved as the input, and the rest was incubated with beads for 6–12 hours at 4°C. The beads were washed 3 times with washing buffer (150 mM NaCl, 50 mM Tris-HCl [pH 7.5], 10% glycerol, 1 mM EDTA). After centrifugation, the beads were boiled in SDS loading buffer, followed by Western blotting.

[2] = tested on: H460 cells; experiment: Apoptosis, annexin V and propidium iodide flow cytometry; format: cell-based, human; parameters: key: % of apoptotic (Annexin V positive) cells
Protocol: (§1) The Apoptosis Detection Kit (MultiSciences Biotech Co. Ltd.) was used to detect cell death according to the manufacturer’s protocol. After RLY01 treatment, both attached and floating cells were harvested, washed with PBS, suspended in binding buffer, stained in annexin V–allophycocyanin (APC) and propidium iodide (PI), and analyzed by flow cytometry. For each experiment, 1 × 10^6 cells/mL were analyzed by the flow cytometer (BD Biosciences) and analyzed with FlowJo v10.8.1 (BD Biosciences).
(§2) Supplemental Figure 8. RLY01 suppresses the clonogenic growth and induces cell apoptosis, related to F i g u re 6. (A) Representative colony formation images after treatment with RLY01 at their respective 1/4 IC50 (Low), IC50 (High) in HCT116- WT, HCT116-shREGγ cells. (B) H460 and Capan -2 (KRAS-MUT) cells were treated with RLY01 for 48 h, and the percentage of apoptotic cells (Annexin positive) was determined by Annexin- V and propidium iodide staining. Each value represents mean ± SEM (n = 3). ****p < 0.0001; p values were measured by two-way ANOVA with Tukey’s multiple-comparisons test.

[3] = tested on: Capan-2 cells; experiment: as above; format: cell-based, human; parameters: key: % of apoptotic (Annexin V positive) cells
Protocol: as §1, §2

[4] = tested on: LoVo cells; experiment: Cell viability assay (CCK-8); format: cell-based; details: Homo sapiens; LoVo (KRAS-MUT); 72 hours
Protocol: (§6) Cells were seeded into 96-well plates at a density of 1,500 cells per well. Cells were then cultivated at 37°C for different periods (0 hours, 24 hours, 48 hours, 72 hours, 96 hours). Upon measurement, 10 μL CCK-8 (Yeasen, 40203ES80) mixed with 100 μL serum-free medium was added to each well and incubated for 1 hour at 37°C. Plates were shaken, and optical density values were determined at 450 nm using a microplate reader (BioTek, Synergy Neo2).

[5] = tested on: Calu1-KRASY96D cells; experiment: Colony formation assay, RLY01 and AMG510; format: cell-based, human
Protocol: (§3) Cells were equally seeded into 12-well plates at a density of 2,000 cells per well. Cultivated for 6–10 days, cells were fixed with 4% polyoxymethylene and stained with 0.2% crystal violet. Images of stained colonies were taken, and the numbers of the colonies were recorded and compared within different groups. Each experiment was representative of at least 3 independent experiments. […]
(§4) by using CompuSyn software (Version 1). The averages and error bars represent the mean ± SEM from three independent experiments. (E-H) Representative colony formation images of Calu1, Calu1- KRASG13D and Calu1- KRASY96D cells (E) and H358, H358- KRASG13D and H358- KRASY96D cells (G) cell with or without RLY01 and […]
(§5) controls. Each value represents mean ± SEM (n = 3). *p < 0.05, **p < 0.01, ***p < 0.001, ****p < 0.0001; p values were measured by two-way ANOVA with Tukey’s multiple-comparisons test.

[6] = tested on: H358-KRASG13D cells; experiment: Colony formation assay, RLY01 and AMG510; format: cell-based, human
Protocol: as §3, §4, §5

[7] = tested on: H358-KRASY96D cells; experiment: Colony formation assay, RLY01 and AMG510; format: cell-based, human
Protocol: as §3, §4, §5

[8] = tested on: Calu1-KRASG13D cells; experiment: Colony formation assay, RLY01 and AMG510; format: cell-based, human
Protocol: as §3, §4, §5

[9] = tested on: H3122 cells; experiment: Cell viability assay (CCK-8); format: cell-based; details: Homo sapiens, NCI-H3122; H3122, Lung; Supplemental Table 4
Protocol: as §6

[10] = tested on: proteasome pathway; experiment: Proteomic profiling, KEGG pathway enrichment; format: cell-based, human; details: RLY01 10 μM
[11] = tested on: p21; experiment: p21 protein stability screen in HeLa cells (Western blot); format: cell-based; details: listed as compound 85
Protocol: Thus, on the basis of this pocket (Figure 4B), a structure-based virtual screen of the 220,000 compounds in the SPECS library (https://www.specs.net) was carried out. We selected 100 candidate compounds with diverse chemical scaffolds from among the top 2,000 candidate compounds with the highest docking scores (Supplemental Figure 6A) and then devised a screening pipeline to assess their binding efficacy. Initially, the ability of the 100 selected compounds to increase the protein stability of p21, which is degraded in a REGγ-dependent manner, in HeLa cells at an initial concentration of 30 μM was evaluated. The top 2 compounds (compounds 85 and 98) were considered hits (Supplemental Figure 6, B and C) and subsequently subjected to a rescreening process using a cell-free proteolysis assay to determine whether they could selectively interfere with peptidase activity stimulated directly by REGγ (Figure 4C). […] Ultimately, RLY01 (Figure 4E) emerged as the top candidate owing to its specific effects and ability to inhibit REGγ-dependent proteasome substrate hydrolysis in vitro.
Protein extracts were loaded onto SDS polyacrylamide gels. Gels were transferred onto nitrocellulose membranes, and the membranes were blocked for 1 hour. After overnight incubation with primary antibody at 4°C, the membranes were washed and probed with fluorescent IRDye 800 CW goat anti-rabbit IgG (1:10,000), IRDye 800 CW goat anti-mouse (1:10,000), and IRDye 680 RD goat anti-mouse IgG (1:5,000) antibodies (Cell Signaling Technology). The membranes were then imaged with the Odyssey Infrared Imaging System (LI-COR Biosciences). […]

Compound: COc1ccc(C2C(C#N)=C(N)Oc3[nH]ncc32)cc1COc1ccc(Cl)cc1 (stereo not shown) [RLY01]
- interaction between REGγ and α7 (co-IP) [1]: decreased the interaction between REGγ and α7 in a concentration-dependent manner
- apoptosis (flow cytometry) ([2]; H460, High dose): 57.16 and 57.98 and 55.96
- apoptosis (flow cytometry) ([2]; H460, Low dose): 26.1 and 25.06 and 25.52
- apoptosis (flow cytometry) ([2]; H460, Medium dose): 39.95 and 39.09 and 39.14
- apoptosis (flow cytometry) ([3]; Capan-2, High dose): 43 and 42.55 and 42.1
- apoptosis (flow cytometry) ([3]; Capan-2, Low dose): 8.92 and 9.03 and 9.4
- apoptosis (flow cytometry) ([3]; Capan-2, Medium dose): 14.03 and 14.04 and 13.83
- IC50 [4]: 11.8 µM
- colony formation relative to DMSO [5]: 40.6617 and 32.1848 and 24.6924
- colony formation relative to DMSO [6]: 21.187 and 26.3594 and 20.6399
- colony formation relative to DMSO [7]: 23.2509 and 24.3365 and 19.813
- colony formation relative to DMSO [8]: 40.0491 and 33.3365 and 29.5412
- IC50 [9]: 31.8 µM
- pathway affected (KEGG enrichment) [10]: predominantly affected the proteasome pathway
- protein stability of p21 ([11]; HeLa cells, 30 μM, 24 h): elevate the protein stability of p21 and hits
- Relative p21 expression [11]: 1.097 and 1.003 and 0.9423
